Reference: PubChem BioAssay (NCI)
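Here, GI50 denotes the concentration required for 50% inhibition of growth. TGI marks complete inhibition of growth.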

Legend:
Test in all cases: NCI-60 cell line screen, 384-well format
[1] = test system: A549 NSCLC
[2] = test system: ACHN renal
[3] = test system: EKVX NSCLC
[4] = test system: HCT-116 colon
[5] = test system: HL-60(TB) leukemia
[6] = test system: HS 578T breast
[7] = test system: MCF7 breast
[8] = test system: MDA-MB-231 breast
[9] = test system: MDA-MB-435 melanoma
[10] = test system: OVCAR-3 ovarian
[11] = test system: SK-MEL-28 melanoma
[12] = test system: U251 glioblastoma
[13] = test system: UACC-62 melanoma

SMILES	GI50 [1]	TGI [1]	GI50 [2]	TGI [2]	GI50 [3]	TGI [3]	GI50 [4]	TGI [4]	GI50 [5]	TGI [5]	GI50 [6]	TGI [6]	GI50 [7]	TGI [7]	GI50 [8]	TGI [8]	GI50 [9]	TGI [9]	GI50 [10]	TGI [10]	further results
CC[C@H](Nc1ncnc2nc[nH]c12)c1nc2cccc(F)c2c(=O)n1-c1ccccc1	32 µM	> 100 µM	13.2 µM	> 100 µM	22.4 µM	> 84.8 µM	39.9 µM	> 100 µM	4610 nM	17.9 µM	12.5 µM	50.3 µM	7.96 µM	69.5 µM	73.6 µM	> 100 µM	25.6 µM	57.1 µM	8.68 µM	> 73.4 µM	GI50 [11]: 27.5 µM; TGI [11]: > 100000 nM; GI50 [12]: > 71400 nM; TGI [12]: > 100 µM; GI50 [13]: 19.4 µM; TGI [13]: > 100000 nM
CC(C)Nc1cc(-c2c[nH]c(C(=O)N[C@H](CO)c3cccc(Cl)c3)c2)c(Cl)cn1	0.641 µM	13.4 µM	2.95 µM	16.3 µM	3.46 µM	17.3 µM	0.231 µM	3.11 µM	184 nM	1.17 µM	10.5 µM	22.3 µM	3.72 µM	15.9 µM	1.37 µM	17.1 µM	0.314 µM	13.4 µM	4.95 µM	19.6 µM	GI50 [11]: 0.12 µM; TGI [11]: 509 nM; GI50 [12]: 2000 nM; TGI [12]: 15.8 µM; GI50 [13]: 0.0563 µM; TGI [13]: 895 nM
